# Experimental data as given in patent US10829490B2, “Substituted dihydropyrazino[1 ′,2′:1,5]pyrrolo[2,3-d]pyrimidine-based antiproliferative agents” (G1 Therapeutics, Inc., priority 2016, dated 2020).
# Experiments:
# CDK4/CyclinD1 = CDK4/CyclinD1 (Homo sapiens (Human), UniProt P11802); assay: CDK4/cyclinD1 kinase assay, microfluidic kinase detection (Caliper, Nanosyn); assay type: biochemical; settings: 12-point dose-response, ATP at Km (200 μM), enzyme 1 nM, incubation 10 hr; read-out: CDK4/Cyclin D1
# Sequence of CDK4/CyclinD1 (P11802 whole entry): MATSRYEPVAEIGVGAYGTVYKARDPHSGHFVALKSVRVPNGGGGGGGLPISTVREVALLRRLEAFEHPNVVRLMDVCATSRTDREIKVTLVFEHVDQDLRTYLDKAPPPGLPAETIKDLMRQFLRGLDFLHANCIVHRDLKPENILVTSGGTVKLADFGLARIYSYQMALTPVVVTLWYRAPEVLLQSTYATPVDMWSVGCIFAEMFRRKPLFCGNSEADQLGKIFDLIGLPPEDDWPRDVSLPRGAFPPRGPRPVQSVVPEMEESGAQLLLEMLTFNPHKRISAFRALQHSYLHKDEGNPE
# Sequence of CDK4/CyclinD1 (P24385 whole entry partner): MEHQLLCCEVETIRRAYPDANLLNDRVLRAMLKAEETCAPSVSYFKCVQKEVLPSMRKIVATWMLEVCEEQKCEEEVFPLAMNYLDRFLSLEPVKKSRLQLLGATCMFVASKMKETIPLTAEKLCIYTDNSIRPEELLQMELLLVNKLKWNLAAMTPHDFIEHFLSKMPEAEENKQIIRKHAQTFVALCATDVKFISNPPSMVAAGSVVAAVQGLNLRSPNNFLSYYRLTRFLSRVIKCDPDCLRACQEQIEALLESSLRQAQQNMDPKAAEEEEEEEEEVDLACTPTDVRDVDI
# Method: (§1) Selected compounds disclosed herein were tested in CDK4/cyclinD1, CDK2/CycA and CDK2/cyclinE kinase assays by Nanosyn (Santa Clara, Calif.) to determine their inhibitory effect on these CDKs. The assays were performed using microfluidic kinase detection technology (Caliper Assay Platform). The compounds were tested in 12-point dose-response format in singlicate at Km for ATP. Phosphoacceptor substrate peptide concentration used was 1 μM for all assays and Staurosporine was used as the reference compound for all assays. Specifics of each assay are as described below:
# CDK4/CyclinD1: Enzyme concentration: 1 nM; ATP concentration: 200 μM; Incubation time: 10 hr.
# CDK6/Cyclin D3 = CDK6/Cyclin D3 (Homo sapiens (Human), UniProt Q00534); assay: CDK6/Cyclin D3 kinase assay (Biological Table 3); assay type: biochemical
# Sequence of CDK6/Cyclin D3 (Q00534 whole entry): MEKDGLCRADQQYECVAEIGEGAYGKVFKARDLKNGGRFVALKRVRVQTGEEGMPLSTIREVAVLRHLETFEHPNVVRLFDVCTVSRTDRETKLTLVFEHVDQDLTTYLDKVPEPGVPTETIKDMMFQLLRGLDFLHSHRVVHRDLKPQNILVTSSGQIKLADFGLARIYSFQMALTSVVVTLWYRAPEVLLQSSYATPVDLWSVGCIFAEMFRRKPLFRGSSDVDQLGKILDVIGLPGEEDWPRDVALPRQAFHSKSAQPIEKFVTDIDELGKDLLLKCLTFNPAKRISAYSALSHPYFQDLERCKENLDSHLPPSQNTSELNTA
# Sequence of CDK6/Cyclin D3 (P30281 whole entry partner): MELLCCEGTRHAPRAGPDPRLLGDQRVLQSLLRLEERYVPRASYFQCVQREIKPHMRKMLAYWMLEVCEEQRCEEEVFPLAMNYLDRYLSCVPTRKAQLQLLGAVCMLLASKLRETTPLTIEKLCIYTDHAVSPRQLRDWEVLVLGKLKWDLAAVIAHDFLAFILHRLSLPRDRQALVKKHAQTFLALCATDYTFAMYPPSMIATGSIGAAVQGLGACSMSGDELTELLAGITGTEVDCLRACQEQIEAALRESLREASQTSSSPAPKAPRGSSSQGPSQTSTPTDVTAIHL
# Method: [Worded in the source for another target; this target is reported under the same test.] as §1, with “assays.” for “assays. Specifics of each assay are as described below:”
# CDK2/CyclinE = CDK2/CyclinE (Homo sapiens (Human), UniProt P24941); assay: CDK2/cyclinE kinase assay, microfluidic kinase detection (Caliper, Nanosyn); assay type: biochemical; settings: 12-point dose-response, ATP at Km (100 μM), enzyme 0.28 nM, incubation 1 hr; read-out: CDK2/Cyclin E
# Method: as §1
# CDK2/CyclinE: Enzyme concentration: 0.28 nM; ATP concentration: 100 μM; Incubation time: 1 hr.
# CDK2/CyclinA = CDK2/CyclinA (Homo sapiens (Human), UniProt P24941); assay: CDK2/CycA kinase assay, microfluidic kinase detection (Caliper, Nanosyn); assay type: biochemical; settings: 12-point dose-response, ATP at Km (50 μM), enzyme 0.2 nM, incubation 3 hr; read-out: CDK2/Cyclin A
# Method: as §1
# CDK2/CyclinA: Enzyme concentration: 0.2 nM; ATP concentration: 50 μM; Incubation time: 3 hr.
# CDK9/Cyclin T = CDK9/Cyclin T (Homo sapiens (Human), UniProt P50750); assay: CDK9/Cyclin T kinase assay (Biological Table 3); assay type: biochemical
# Sequence of CDK9/Cyclin T (P50750 whole entry): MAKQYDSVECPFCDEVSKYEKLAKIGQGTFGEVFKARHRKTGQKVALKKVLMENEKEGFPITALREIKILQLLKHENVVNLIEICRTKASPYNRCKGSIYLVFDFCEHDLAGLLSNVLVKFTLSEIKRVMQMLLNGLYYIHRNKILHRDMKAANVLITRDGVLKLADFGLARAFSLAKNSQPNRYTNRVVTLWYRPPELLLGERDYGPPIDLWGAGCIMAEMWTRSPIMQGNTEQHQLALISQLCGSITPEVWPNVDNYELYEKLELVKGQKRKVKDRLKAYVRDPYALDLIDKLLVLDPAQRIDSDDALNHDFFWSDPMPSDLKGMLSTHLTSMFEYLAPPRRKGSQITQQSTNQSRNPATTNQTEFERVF
# Sequence of CDK9/Cyclin T (O60563 whole entry partner): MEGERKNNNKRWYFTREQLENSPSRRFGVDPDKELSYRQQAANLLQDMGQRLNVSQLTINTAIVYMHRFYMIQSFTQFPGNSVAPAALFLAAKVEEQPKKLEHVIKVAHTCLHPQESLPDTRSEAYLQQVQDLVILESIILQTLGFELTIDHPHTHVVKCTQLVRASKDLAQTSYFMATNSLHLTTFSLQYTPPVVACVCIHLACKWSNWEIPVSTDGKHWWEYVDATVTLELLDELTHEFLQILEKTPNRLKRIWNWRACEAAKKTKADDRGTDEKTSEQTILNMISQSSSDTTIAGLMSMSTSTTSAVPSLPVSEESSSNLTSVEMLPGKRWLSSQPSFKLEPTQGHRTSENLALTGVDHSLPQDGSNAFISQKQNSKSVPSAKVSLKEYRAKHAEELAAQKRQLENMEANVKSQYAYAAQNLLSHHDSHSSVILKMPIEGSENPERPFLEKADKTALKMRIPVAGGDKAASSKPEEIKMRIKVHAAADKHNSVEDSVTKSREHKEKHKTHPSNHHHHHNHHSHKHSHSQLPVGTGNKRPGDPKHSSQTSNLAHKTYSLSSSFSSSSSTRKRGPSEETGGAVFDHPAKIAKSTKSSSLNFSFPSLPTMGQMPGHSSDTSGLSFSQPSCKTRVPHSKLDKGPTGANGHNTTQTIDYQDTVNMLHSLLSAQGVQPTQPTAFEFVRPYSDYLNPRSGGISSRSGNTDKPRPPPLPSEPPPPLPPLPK
# Hs68 cells = assay: Cell population by DNA content (<2N, G0-G1, S, G2-M) as measure of apoptotic cells; assay type: cell-based; settings: at every dose administered (FIG. 4)
# Text: FIG. 4 is a bar graph showing the population of cells with a DNA content less than 2N, cells in the G0-G1 phase, cells in the S phase, and cells in the G2-M phase as a way to measure the relative amount of apoptotic cells following administration of control and Compound 28. The population of apoptotic cells after exposure to Compound 28 was greater than 70% at every dose administered. The assay was done in a population of Hs68 cells. * is <2000 events. The Compound number and dose, measured in μM and nM, are shown on the x-axis and the cell population, measured in percent, is shown on the y-axis.
# CDK4/CycD = CDK4/CycD (Homo sapiens (Human), UniProt P11802); assay: CDK4/CycD kinase inhibition (Biological Table 1); assay type: biochemical
# Sequence of CDK4/CycD (P11802 whole entry): as the sequence (P11802 whole entry) above
# Sequence of CDK4/CycD (P24385 whole entry partner): as the sequence (P24385 whole entry partner) above
# CDK6/CycD3 = CDK6/CycD3 (Homo sapiens (Human), UniProt Q00534); assay: CDK6/CycD3 kinase inhibition (Biological Table 1); assay type: biochemical
# Sequence of CDK6/CycD3 (Q00534 whole entry): as the sequence (Q00534 whole entry) above
# Sequence of CDK6/CycD3 (P30281 whole entry partner): as the sequence (P30281 whole entry partner) above
# CDK2/CycE = CDK2/CycE (Homo sapiens (Human), UniProt P24941); assay: CDK2/CycE kinase inhibition (Biological Table 1); assay type: biochemical
# CDK2/CycA = CDK2/CycA (Homo sapiens (Human), UniProt P24941); assay: CDK2/CycA kinase inhibition (Biological Table 1); assay type: biochemical
# CDK5/p35 = CDK5/p35 (Homo sapiens (Human), UniProt Q00535); assay: CDK5/p35 kinase inhibition (Biological Table 1); assay type: biochemical
# Sequence of CDK5/p35 (Q00535 whole entry): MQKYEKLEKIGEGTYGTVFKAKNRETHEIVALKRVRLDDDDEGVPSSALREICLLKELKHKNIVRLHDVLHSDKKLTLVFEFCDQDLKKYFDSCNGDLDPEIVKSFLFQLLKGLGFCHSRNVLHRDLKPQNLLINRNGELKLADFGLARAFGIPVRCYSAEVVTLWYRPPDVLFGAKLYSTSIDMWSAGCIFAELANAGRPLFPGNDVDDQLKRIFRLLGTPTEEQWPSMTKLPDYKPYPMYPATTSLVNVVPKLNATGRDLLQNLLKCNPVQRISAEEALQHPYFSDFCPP
# Sequence of CDK5/p35 (Q15078 whole entry partner): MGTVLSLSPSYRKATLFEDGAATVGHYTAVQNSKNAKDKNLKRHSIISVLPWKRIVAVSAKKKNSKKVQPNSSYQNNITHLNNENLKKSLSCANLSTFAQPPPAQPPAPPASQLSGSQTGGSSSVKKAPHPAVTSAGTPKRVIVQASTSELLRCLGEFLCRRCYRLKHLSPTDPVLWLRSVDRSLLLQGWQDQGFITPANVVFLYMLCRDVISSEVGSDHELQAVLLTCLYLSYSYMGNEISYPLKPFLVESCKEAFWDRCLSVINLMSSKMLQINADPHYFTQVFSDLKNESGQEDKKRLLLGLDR
# CDK5/p25 = CDK5/p25 (Homo sapiens (Human), UniProt Q00535); assay: CDK5/p25 kinase inhibition (Biological Table 2); assay type: biochemical
# Sequence of CDK5/p25 (Q00535 whole entry): as the sequence (Q00535 whole entry) above
# CDK7/CycH/MAT1 = CDK7/CycH/MAT1 (Homo sapiens (Human), UniProt P50613); assay: CDK7/CycH/MAT1 kinase inhibition (Biological Table 2); assay type: biochemical
# Sequence of CDK7/CycH/MAT1 (P50613 whole entry): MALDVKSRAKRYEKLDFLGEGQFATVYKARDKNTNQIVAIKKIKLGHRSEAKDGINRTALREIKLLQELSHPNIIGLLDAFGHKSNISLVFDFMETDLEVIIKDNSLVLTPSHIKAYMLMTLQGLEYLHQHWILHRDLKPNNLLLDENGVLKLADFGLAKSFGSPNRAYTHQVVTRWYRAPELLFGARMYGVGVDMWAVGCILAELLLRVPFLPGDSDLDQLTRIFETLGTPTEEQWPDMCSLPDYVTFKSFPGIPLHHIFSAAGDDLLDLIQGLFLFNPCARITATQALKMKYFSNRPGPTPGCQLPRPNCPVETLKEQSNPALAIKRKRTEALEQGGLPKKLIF
# Sequence of CDK7/CycH/MAT1 (P51946 whole entry partner): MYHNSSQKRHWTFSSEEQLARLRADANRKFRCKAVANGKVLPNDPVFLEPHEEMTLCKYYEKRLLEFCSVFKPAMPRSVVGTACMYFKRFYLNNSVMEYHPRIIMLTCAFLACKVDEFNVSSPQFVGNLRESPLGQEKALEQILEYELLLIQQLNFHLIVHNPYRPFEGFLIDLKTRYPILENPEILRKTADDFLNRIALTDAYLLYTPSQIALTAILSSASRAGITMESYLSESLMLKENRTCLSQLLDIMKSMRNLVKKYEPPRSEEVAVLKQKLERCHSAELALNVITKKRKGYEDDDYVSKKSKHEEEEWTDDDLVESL
# Sequence of CDK7/CycH/MAT1 (P51948 whole entry partner): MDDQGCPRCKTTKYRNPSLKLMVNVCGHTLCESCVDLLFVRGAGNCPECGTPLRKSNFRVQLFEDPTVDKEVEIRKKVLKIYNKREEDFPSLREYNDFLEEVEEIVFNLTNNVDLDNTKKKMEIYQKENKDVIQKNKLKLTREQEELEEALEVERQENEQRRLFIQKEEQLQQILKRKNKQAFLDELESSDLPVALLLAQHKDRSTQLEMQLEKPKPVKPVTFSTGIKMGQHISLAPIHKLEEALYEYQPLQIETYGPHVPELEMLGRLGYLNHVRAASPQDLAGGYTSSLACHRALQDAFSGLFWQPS
# CDK9/CycT = CDK9/CycT (Homo sapiens (Human), UniProt P50750); assay: CDK9/CycT kinase inhibition (Biological Table 2); assay type: biochemical
# Sequence of CDK9/CycT (P50750 whole entry): as the sequence (P50750 whole entry) above
# Sequence of CDK9/CycT (O60563 whole entry partner): as the sequence (O60563 whole entry partner) above
IC50 (CDK4/CyclinD1),IC50 (CDK6/Cyclin D3),IC50 (CDK2/CyclinE),IC50 (CDK2/CyclinA),IC50 (CDK9/Cyclin T),Compound,population of apoptotic cells (Hs68 cells),IC50 (CDK4/CycD),IC50 (CDK6/CycD3),IC50 (CDK2/CycE),IC50 (CDK2/CycA),IC50 (CDK5/p35),IC50 (CDK5/p25),IC50 (CDK7/CycH/MAT1),IC50 (CDK9/CycT)
0.02 µM,0.06 µM,> 100 µM,13.5 µM,1 µM,"CN1CCN(c2cnc(Nc3ncc4cc5n(c4n3)C3(CCCCC3)CNC5=O)nc2)CC1 [Compound 28, 2′-((5-(4-Methylpiperazin-1-yl)pyrimidin-2-yl)amino)-7′,8′-dihydro-6′H-spiro[cyclohexane-1,9′-pyrazino[1′,2′:1,5]pyrrolo [2,3-d]pyrimidin]-6′-one]",greater than 70%,–,–,–,–,–,–,–,–
–,–,–,–,–,"CN1CCN(c2ccc(Nc3ncc4c(n3)N3CCNC(=O)C3CC4=O)nc2)CC1 (stereo not drawn) [Compound 6, 2-((5-(4-methylpiperazin-1-yl)pyridin-2-yl)amino)-6,6a,9,10-tetrahydro-5H-pyrazino[1′,2′:1,6]pyrido[2,3-d]pyrimidine-5,7(8H)-dione]",–,14.4 µM,50.4 µM,> 100 µM,> 100 µM,> 100 µM,> 100 µM,> 100 µM,> 100 µM
–,–,–,–,–,"CCOC(=O)C1C(=O)c2cnc(Nc3ccc(N4CCN(C)CC4)cn3)nc2N2CCCCC12 (stereo not drawn) [Compound 8, ethyl 2-((5-(4-methylpiperazin-1-yl)pyridin-2-yl)amino)-5-oxo-6,6a,7,8,9,10-hexahydro-5H-pyrimido[5,4-c]quinolizine-6-carboxylate]",–,4.1 µM,3.5 µM,> 100 µM,> 100 µM,> 100 µM,> 100 µM,> 100 µM,> 100 µM
–,–,–,–,–,"CN1CCN(c2ccc(Nc3ncc4c(n3)N3C(CC4)C(=O)NCC34CCCCC4)nc2)CC1 (stereo not drawn) [Compound 4, 2′-((5-(4-methylpiperazin-1-yl)pyridin-2-yl)amino)-6′,6a′,8′,9′-tetrahydrospiro[cyclohexane-1,10′-pyrazino[1′,2′:1,6]pyrido[2,3-d]pyrimidin]-7′(5′H)-one]",–,47.7 µM,75.9 µM,> 100 µM,86.4 µM,> 100 µM,> 100 µM,> 100 µM,> 100 µM
